Experiment [1] deals with T1, human recombinant HDAC1 (Homo sapiens, UniProt Q13547).
T1 construct: purchased Enzo Life Science BML-SE456
The experiment can be described thus: HDAC1 enzyme activity inhibition assay (HDAC Fluorimetric Drug Discovery Kit). In kind it is biochemical. The note with it: 30° C. 60 minutes. Summed up:
(§1)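 Fluorimetric deacetylase assay: 5-fold serial compound dilutions, 0.3 μg recombinant human enzyme (HDAC1 or HDAC6, same protocol), 10 μM Fluor de Lys-SIRT1 substrate, 60 min at 30 °C. Signal developed 30 min, measured at 360/460 nm; IC50 values derived.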

Experiment [2] has as its target T2, human recombinant HDAC6 (Homo sapiens, UniProt Q9UBN7).
T2 construct: purchased Calbiochem 382180
T2 sequence (Q9UBN7 1-1215): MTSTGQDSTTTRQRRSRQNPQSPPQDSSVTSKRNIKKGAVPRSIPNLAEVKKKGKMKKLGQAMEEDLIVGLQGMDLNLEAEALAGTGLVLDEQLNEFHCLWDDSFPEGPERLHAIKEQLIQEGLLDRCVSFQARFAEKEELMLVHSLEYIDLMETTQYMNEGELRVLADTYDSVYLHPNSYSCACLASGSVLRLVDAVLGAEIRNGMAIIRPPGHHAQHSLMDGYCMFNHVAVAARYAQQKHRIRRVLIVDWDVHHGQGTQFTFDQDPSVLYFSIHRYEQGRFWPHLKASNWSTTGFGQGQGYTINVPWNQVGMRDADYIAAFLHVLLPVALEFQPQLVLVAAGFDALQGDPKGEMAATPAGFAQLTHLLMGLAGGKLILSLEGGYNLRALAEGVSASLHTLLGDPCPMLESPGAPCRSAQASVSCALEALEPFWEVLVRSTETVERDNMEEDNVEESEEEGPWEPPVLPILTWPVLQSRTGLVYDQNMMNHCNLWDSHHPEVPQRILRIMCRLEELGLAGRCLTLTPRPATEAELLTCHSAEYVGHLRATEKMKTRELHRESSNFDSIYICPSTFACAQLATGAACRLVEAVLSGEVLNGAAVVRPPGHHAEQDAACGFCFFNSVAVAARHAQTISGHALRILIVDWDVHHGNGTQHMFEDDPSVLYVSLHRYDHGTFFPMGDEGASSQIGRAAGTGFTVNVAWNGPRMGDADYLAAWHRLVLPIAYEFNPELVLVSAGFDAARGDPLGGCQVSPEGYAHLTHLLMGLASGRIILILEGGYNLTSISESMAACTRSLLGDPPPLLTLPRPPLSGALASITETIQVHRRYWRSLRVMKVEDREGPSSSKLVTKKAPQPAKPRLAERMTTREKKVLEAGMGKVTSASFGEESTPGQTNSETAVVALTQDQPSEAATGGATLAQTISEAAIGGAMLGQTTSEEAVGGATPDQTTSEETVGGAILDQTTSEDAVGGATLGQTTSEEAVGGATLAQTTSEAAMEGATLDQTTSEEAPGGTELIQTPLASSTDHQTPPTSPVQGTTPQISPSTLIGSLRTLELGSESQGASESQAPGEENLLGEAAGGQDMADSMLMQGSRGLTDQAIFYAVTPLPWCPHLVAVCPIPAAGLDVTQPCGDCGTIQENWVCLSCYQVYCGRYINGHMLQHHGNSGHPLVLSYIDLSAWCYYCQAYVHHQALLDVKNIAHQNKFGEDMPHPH
The experiment can be described thus: HDAC6 enzyme activity inhibition assay (HDAC Fluorimetric Drug Discovery Kit). The note with it: for HDAC6 selectivity (fold): HDAC6 over HDAC1; for IC50: human recombinant HDAC6, same protocol as HDAC1, read-out: HDAC6. In kind it is biochemical. Summed up:
as §1

[3] abbreviates: human recombinant HDAC1, Fluor de Lys substrate 10 μM.
Where [4] appears, read: human recombinant HDAC1, Fluor de Lys substrate.

18 compounds from patent publication US10717716B2, “1,3,4-oxadiazole derivative compounds as histone deacetylase 6 inhibitor, and the pharmaceutical composition comprising the same” (Chong Kun Dang Pharmaceutical Corp., priority 2015, dated 2020) can be followed below.

T1 sequence (Q13547 whole entry): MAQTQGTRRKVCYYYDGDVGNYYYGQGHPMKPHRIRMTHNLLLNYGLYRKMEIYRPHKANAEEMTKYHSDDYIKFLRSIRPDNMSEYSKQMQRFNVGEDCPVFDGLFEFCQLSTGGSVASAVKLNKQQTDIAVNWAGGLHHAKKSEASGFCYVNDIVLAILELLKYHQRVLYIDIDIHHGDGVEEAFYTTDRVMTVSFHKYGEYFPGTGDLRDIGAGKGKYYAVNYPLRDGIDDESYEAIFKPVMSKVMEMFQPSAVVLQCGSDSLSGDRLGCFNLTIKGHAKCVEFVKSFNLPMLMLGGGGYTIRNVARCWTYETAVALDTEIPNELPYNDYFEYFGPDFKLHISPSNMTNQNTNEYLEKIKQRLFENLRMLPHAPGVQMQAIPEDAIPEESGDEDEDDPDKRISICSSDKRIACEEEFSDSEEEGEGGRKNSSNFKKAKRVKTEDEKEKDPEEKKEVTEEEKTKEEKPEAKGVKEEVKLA

For the compound `CCN1CCN(C(=O)N(Cc2ccc(-c3nnc(C(F)(F)F)o3)cc2F)c2ccc(OC)cc2)CC1` [Compound 21875, 4-Ethyl-N-(2-fluoro-4-(5-(trifluoromethyl)-1,3,4-oxadiazol-2-yl)benzyl)-N-(4-methoxyphenyl)piperazine-1-carboxamide], the IC50 in experiment [1] (setting [3]) is 9 µM. Further, in experiment [2], the “HDAC6 selectivity (fold)” value turned out to be 23 fold and the IC50 stood at 0.386 µM.
In the case of `CCN1CCN(C(=O)N(Cc2ccc(-c3nnc(C(F)(F)F)o3)cn2)c2ccc(OC)cc2)CC1` [Compound 21876, 4-Ethyl-N-(4-methoxyphenyl)-N-((5-(5-(trifluoromethyl)-1,3,4-oxadiazol-2-yl)pyridin-2-yl)methyl)piperazine-1-carboxamide], the IC50 in experiment [1] (setting [3]) came out at 11.7 µM; in experiment [2], 0.255 µM. In addition, the “HDAC6 selectivity (fold)” value in experiment [2] is 46 fold.
As for `CCN1CCN(C(=O)N(Cc2ccc(-c3nnc(C(F)F)o3)cc2)c2cccc(Cl)c2)CC1` [Compound 21877, N-(3-Chlorophenyl)-N-(4-(5-(difluoromethyl)-1,3,4-oxadiazol-2-yl)benzyl)-4-ethylpiperazine-1-carboxamide], the IC50 in experiment [1] (setting [3]) stood at 65 µM. In experiment [2], the “HDAC6 selectivity (fold)” value was found to be 1424 fold and the IC50 came out at 0.046 µM.
The matching figures for `CCN1CCN(C(=O)N(Cc2ccc(-c3nnc(C(F)F)o3)cc2F)c2cccc(Cl)c2)CC1` [Compound 21878, N-(3-Chlorophenyl)-N-(4-(5-(difluoromethyl)-1,3,4-oxadiazol-2-yl)-2-fluorobenzyl)-4-ethylpiperazine-1-carboxamide]: 21.5 µM, 522 fold and 0.041 µM.
In the same order, the values of `CCN1CCN(C(=O)N(Cc2ccc(-c3nnc(C(F)F)o3)cn2)c2cccc(Cl)c2)CC1` [Compound 21879, N-(3-Chlorophenyl)-N-((5-(5-(difluoromethyl)-1,3,4-oxadiazol-2-yl)pyridin-2-yl)methyl)-4-ethylpiperazine-1-carboxamide] are 27.9 µM, 1064 fold and 0.026 µM.
For the compound `CCN1CCN(C(=O)N(Cc2ccc(-c3nnc(C(F)F)o3)cc2)c2ccc(Cl)cc2)CC1` [Compound 21880, N-(4-Chlorophenyl)-N-(4-(5-(difluoromethyl)-1,3,4-oxadiazol-2-yl)benzyl)-4-ethylpiperazine-1-carboxamide], the IC50 in experiment [1] (setting [3]) was found to be 44.4 µM. In addition, in experiment [2], the “HDAC6 selectivity (fold)” value is listed as 467 fold and the IC50 worked out at 0.095 µM.
`CCN1CCN(C(=O)N(Cc2ccc(-c3nnc(C(F)F)o3)cc2)c2ccc(OC)cc2)CC1` [Compound 21892, N-(4-(5-(Difluoromethyl)-1,3,4-oxadiazol-2-yl)benzyl)-4-ethyl-N-(4-methoxyphenyl)piperazine-1-carboxamide]: the IC50 was determined as 48.7 µM in experiment [1] (setting [3]) and 0.089 µM in experiment [2]. Besides, the “HDAC6 selectivity (fold)” value in experiment [2] is 548 fold.
`CCN1CCN(C(=O)N(Cc2ccc(-c3nnc(C(F)F)o3)cc2F)c2ccc(OC)cc2)CC1` [Compound 21893, N-(4-(5-(Difluoromethyl)-1,3,4-oxadiazol-2-yl)-2-fluorobenzyl)-4-ethyl-N-(4-methoxyphenyl)piperazine-1-carboxamide]: the IC50 in experiment [1] (setting [3]) was found to be 37.6 µM. In experiment [2], the “HDAC6 selectivity (fold)” value was found to be 640 fold and the IC50 amounted to 0.059 µM.
As to `CCN1CCN(C(=O)N(Cc2ccc(-c3nnc(C(F)F)o3)cn2)c2ccc(OC)cc2)CC1` [Compound 21894, N-((5-(5-(Difluoromethyl)-1,3,4-oxadiazol-2-yl)pyridin-2-yl)methyl)-4-ethyl-N-(4-methoxyphenyl)piperazine-1-carboxamide], the IC50 in experiment [1] (setting [3]) was found to be 76.3 µM; in experiment [2], 0.048 µM. In addition, the “HDAC6 selectivity (fold)” value in experiment [2] stood at 1588 fold.
In the same order, the values of `O=C(N1CCS(=O)(=O)CC1)N(Cc1ccc(-c2nnc(C(F)F)o2)cc1F)c1ccc(CN2CCN(C3COC3)CC2)cc1` [Compound 21896, N-(4-(5-(difluoromethyl)-1,3,4-oxadiazol-2-yl)-2-fluorobenzyl)-N-(4-((4-(oxetan-3-yl)piperazin-1-yl)methyl)phenyl)thiomorpholine-4-carboxamide 1,1-dioxide] are 28.5 µM, 0.346 µM and 82 fold.
The matching figures for `CC(C)(C)CN1CCN(Cc2ccc(N(Cc3ccc(-c4nnc(C(F)(F)F)o4)cc3F)C(=O)N3CCS(=O)(=O)CC3)cc2)CC1` [Compound 21897, N-(2-fluoro-4-(5-(trifluoromethyl)-1,3,4-oxadiazol-2-yl)benzyl)-N-(4-((4-neopentylpiperazin-1-yl)methyl)phenyl)thiomorpholine-4-carboxamide 1,1-dioxide]: 68.1 µM, 0.487 µM and 140 fold.
In the same order, the values of `O=C(N1CCS(=O)(=O)CC1)N(Cc1ccc(-c2nnc(C(F)(F)F)o2)cc1F)c1ccc(CN2CCN(C3COC3)CC2)cc1` [Compound 21898, N-(2-fluoro-4-(5-(trifluoromethyl)-1,3,4-oxadiazol-2-yl)benzyl)-N-(4-((4-(oxetan-3-yl)piperazin-1-yl)methyl)phenyl)thiomorpholine-4-carboxamide 1,1-dioxide] are 40.6 µM, 0.247 µM and 164 fold.
As for `CCN1CCN(Cc2ccc(N(Cc3ccc(-c4nnc(C(F)F)o4)cc3F)C(=O)N3CCS(=O)(=O)CC3)cc2)CC1` [Compound 21899, N-(4-(5-(difluoromethyl)-1,3,4-oxadiazol-2-yl)-2-fluorobenzyl)-N-(4-((4-ethylpiperazin-1-yl)methyl)phenyl)thiomorpholine-4-carboxamide 1,1-dioxide], the IC50 in experiment [1] (setting [3]) was 75.7 µM. Further, in experiment [2], the “HDAC6 selectivity (fold)” value is listed as 1364 fold and the IC50 was 0.055 µM.
Take `O=C(N1CCN(C2COC2)CC1)N(Cc1ccc(-c2nnc(C(F)F)o2)cn1)c1ccccc1` [Compound 21905, N-((5-(5-(Difluoromethyl)-1,3,4-oxadiazol-2-yl)pyridin-2-yl)methyl)-4-(oxetan-3-yl)-N-phenylpiperazine-1-carboxamide]: the IC50 in experiment [1] (setting [3]) was found to be 56.1 µM. In experiment [2], the “HDAC6 selectivity (fold)” value came out at 1454 fold and the IC50 was found to be 0.039 µM.
Turning to `O=C(N1CCOCC1)N(Cc1ccc(-c2nnc(C(F)(F)F)o2)cc1F)c1ccc(F)c(Cl)c1` [Compound 21930, N-(3-chloro-4-fluorophenyl)-N-(2-fluoro-4-(5-(trifluoromethyl)-1,3,4-oxadiazol-2-yl)benzyl)morpholine-4-carboxamide], the IC50 in experiment [1] (setting [4]) was determined as 14.6 µM. In experiment [2], the “HDAC6 selectivity (fold)” value was 35 fold and the IC50 is 0.419 µM.
In the same order, the values of `O=C(N1CCN(C2COC2)CC1)N(Cc1ccc(-c2nnc(C(F)F)o2)cn1)c1ccc(F)cc1` [Compound 21941, N-((5-(5-(Difluoromethyl)-1,3,4-oxadiazol-2-yl)pyridin-2-yl)methyl)-N-(4-fluorophenyl)-4-(oxetan-3-yl)piperazine-1-carboxamide] are 46 µM, 446 fold and 0.103 µM.
In the case of `O=C(N1CCN(C2COC2)CC1)N(Cc1ccc(-c2nnc(C(F)F)o2)cc1F)c1cccc(Cl)c1` [Compound 21943, N-(3-Chlorophenyl)-N-(4-(5-(difluoromethyl)-1,3,4-oxadiazol-2-yl)-2-fluorobenzyl)-4-(oxetan-3-yl)piperazine-1-carboxamide], the IC50 in experiment [1] (setting [4]) amounted to 29.6 µM. Also, in experiment [2], the “HDAC6 selectivity (fold)” value is on record as 611 fold and the IC50 stood at 0.048 µM.
The matching figures for `COc1cccc(N(Cc2ccc(-c3nnc(C(F)F)o3)cc2)C(=O)N2CCN(C3COC3)CC2)c1` [Compound 21948, N-(4-(5-(Difluoromethyl)-1,3,4-oxadiazol-2-yl)benzyl)-N-(3-methoxyphenyl)-4-(oxetan-3-yl)piperazine-1-carboxamide]: 46.3 µM, 188 fold and 0.246 µM.
